Laboratory results from patent US20240115592A1, “PGC-1alpha EXPRESSION PROMOTING AGENT, MUSCLE-BUILDING AGENT AND MITOCHONDRIA ACTIVATING AGENT” (YAMASA CORPORATION, priority 2020, published 2024).

How the values were obtained:
PGC-1α [1] = conditions: neurons; Patent Literature 1; cited from earlier work
Myogenin [2] = assay: Myogenin gene expression promoting effect (II) (Example 4); format: cell-based, Mouse; conditions: C2C12 cells, 4-6 days, vs control
Description: (§1) Mouse myoblast cell line C2C12 cells (RIKEN BRC, RCB0987) were suspended in growth medium (Dulbecco's modified Eagle's Medium supplemented with 10% FBS, 100 units/ml of penicillin, 100 μg/ml of streptomycin), seeded in 24-well plates, and incubated in a 37° C., 5% CO2 incubator until the cell density reached 70-90%. […] After culturing the cells for 4-6 days while exchanging the medium once every 2 days, the medium was removed, and total RNA was extracted from the cells using the RNeasy Mini kit (QIAGEN).
(§2) A level of Myogenin mRNA expression, a marker gene for myotube cell differentiation, was evaluated by the following method:
(§3) Cell culture and treatment with the test substances, total RNA extraction and reverse transcription reaction were performed as in Example 2. Real-time PCR analysis was used to determine mRNA expression levels of Myogenin and β-actin as an internal standard. Statistical analysis was also performed in the same method as that of Example 1.

Myh7 [3] = assay: Myh7 gene expression promoting effect (II) (Example 6); format: cell-based, Mouse; conditions: C2C12 cells, 4-6 days, vs control
Description: as §1
(§4) A level of Myh7 mRNA expression encoding a slow-muscle type myosin protein was evaluated using the following method:
as §3, with “Myh7” for “Myogenin”

C2C12 cells [4] = assay: Myotube cell diameter increasing effect (II) (Example 10); format: cell-based, Mouse; conditions: 5-6 days; for myotube cell diameter (photographs): FIG. 13; for myotube cell diameter (ImageJ, average of 50 cells): vs control, FIGS. 14 to 17
Description: Cell culture and addition of test substances were carried out by the same method as that of Example 2. The cells were cultured for 5-6 days while exchanging a differentiation inducing medium containing the test substances once every 2 days, and five positions near the center of the wells were then photographed at magnifications of 100.
Also, using ImageJ image analysis software, the diameters of ten myotube cells per a photograph were measured in order from the myotube cell having the largest diameter, and an average of 50 cells was determined to be the diameter of the myotube cell in each well. Statistical analysis was also performed by the same method as that of Example 2.

PGC-1α [5] = assay: PGC-1α gene expression promoting effect (I), real-time PCR (Example 1); format: cell-based, Mouse; conditions: C2C12 cells, 1 mM or 5 mM disodium cytidylate, 6 days, corrected by β-actin, vs control; FIG. 1
Description: Mouse myoblast cell line C2C12 cells (RIKEN BRC, RCB0987) were suspended in growth medium (Dulbecco's modified Eagle's Medium supplemented with 10% FBS, 100 units/ml of penicillin, 100 μg/ml of streptomycin), seeded in 24-well plates, and incubated in a 37° C., 5% CO2 incubator until the cell density reached 70-90%. […] After culturing the cells for 6 days while exchanging the medium once every 2 days, the medium was removed, and total RNA was extracted from the cells using the RNeasy Mini kit (QIAGEN). Unless otherwise stated, each sample n=6 was used for the study, including the following Examples. Using the total RNA as a template, a reverse transcription reaction solution was prepared using the ReverTra Ace® qPCR RT Kit (Toyobo). The reverse transcription reaction solution, GoTaq® qPCR Master Mix (Promega), and a real-time PCR device, Thermal Cycler Dice Real Time System (Takara Bio), were used to measure mRNA expression levels of PGC-1α and β-actin as an internal standard. Analysis was performed by relative quantification, and mRNA expression levels were corrected using the β-actin mRNA expression level as an endogenous control. Dunnett's multiple comparison test was performed for statistical analysis. The threshold of statistical significance was set to 5%.

PGC-1α [6] = assay: PGC-1α gene expression promoting effect (II), real-time PCR (Example 2); format: cell-based, Mouse; conditions: C2C12 cells, 4-6 days, corrected by β-actin, vs control; FIG. 2
Description: as §1
Using the total RNA as a template, a reverse transcription reaction solution was prepared using the ReverTra Ace® qPCR RT Kit (Toyobo). The reverse transcription reaction solution, GoTaq® qPCR Master Mix (Promega), and a real-time PCR device, Thermal Cycler Dice Real Time System (Takara Bio), were used to measure the mRNA expression levels of PGC-1α and β-actin as an internal standard. Analysis was performed by relative quantification, and the mRNA expression level was corrected using the β-actin mRNA expression level as an endogenous control. Statistical analysis was performed by t-test or Dunnett's multiple comparison test using the differentiation induction medium treatment group without the test substances as a control. The threshold of statistical significance was set to 5%.

Myogenin [7] = assay: Myogenin gene expression promoting effect (I) (Example 3); format: cell-based, Mouse; conditions: C2C12 cells, disodium cytidylate, 6 days, vs control; FIG. 3
Description: as §2
(§5) Mouse myoblast cell line C2C12 cells were suspended in growth medium, seeded in 24-well plates, and incubated in a 37° C., 5% CO2 incubator until the cell density reached 70-90%. The growth medium was removed, and exchanged to a differentiation induction medium containing 1 mM disodium cytidylate or 1 mM disodium cytidylate or containing no cytidylic acid. The cells were cultured for 6 days while exchanging the medium once every 2 days. Total RNA extraction and reverse transcription reaction were performed as in Example 1. Real-time PCR analysis was used to determine mRNA expression levels of Myogenin and β-actin as an internal standard. Statistical analysis was performed in the same method as that of Example 1.

Myh7 [8] = assay: Myh7 gene expression promoting effect (I) (Example 5); format: cell-based, Mouse; conditions: C2C12 cells, 5 mM disodium cytidylate, 4 days, vs control; FIG. 6
Description: as §4
as §5, with “5” for “1 mM disodium cytidylate or 1”, “4” for “6”, “days, and the medium was then removed, and the total” for “days. Total”, “Myh7” for “Myogenin”, “Welch's t-test” for “Statistical analysis”, “used for statistical analysis. The threshold for statistical significance was set to 5%.” for “performed in the same method as that of Example 1.”

C2C12 cells [9] = assay: Mitochondrial DNA copy number increasing effect (I) (Example 7); format: cell-based, Mouse; conditions: 1 mM or 5 mM disodium cytidylate, 6 days, n=3, FIG. 9
Description: Cell culture and addition of test substance were carried out by the same method as that of Example 1. The cells were cultured for 6 days while exchanging a differentiation induction medium containing the test substance once every 2 days, the medium was then removed and total DNA was extracted from the cells using DNeasy Blood & Tissue kit (QIAGEN). Extracted DNA, GoTaq® qPCR Master Mix (Promega) and a real-time PCR device, Thermal Cycler Dice Real Time System (Takara Bio), were used to determine COX2 (Cytochrome c oxidase subunit 2), a gene encoded in the mitochondrial DNA, and PPIA (Cyclophilin A), a gene encoded in […] DNA as an internal standard. The amount of COX2 present relative to the amount of PPIA present was evaluated as the mitochondrial DNA copy number. Statistical analysis was performed by the same method as that of Example 1. This Example was studied with n=3.

C2C12 cells [10] = assay: Mitochondrial DNA copy number increasing effect (II) (Example 8); format: cell-based, Mouse; conditions: 6 days, n=3, FIG. 10
Description: Cell culture and addition of test substances were carried out in the same method as that of Example 2. The cells were cultured for 6 days, the medium was then removed and total DNA was extracted from the cells using DNeasy Blood & Tissue kit (QIAGEN).
Extracted DNA, GoTaq® qPCR Master Mix (Promega) and a real-time PCR device, Thermal Cycler Dice Real Time System (Takara Bio), were used to determine COX2 (Cytochrome c oxidase subunit 2), a gene encoded in the mitochondrial DNA, and PPIA (Cyclophilin A), a gene encoded in […] DNA, as an internal standard.
The amount of COX2 present relative to the amount of PPIA present was evaluated as the mitochondrial DNA copy number. Statistical analysis was performed by the same method as that of Example 1. This Example was studied with n=3.

C2C12 cells [11] = assay: Myotube cell diameter increasing effect (I) (Example 9); format: cell-based, Mouse; conditions: 6 days; for Average myotube cell diameter: control 53.9
Description: Cell culture and addition of a test substance were carried out by the same method as that of Example 1. The cells were cultured for 6 days while exchanging a differentiation inducing medium containing the test substance once every 2 days, and five positions near the center of the wells were then photographed at magnifications of 100. Using ImageJ image analysis software, the diameters of ten myotube cells per a photograph were measured in order from the myotube cell having the largest diameter, and an average of 50 cells was determined to be the diameter of the myotube cell in each well. Statistical analysis was performed by the same method as that of Example 1. Photographs of representative examples of the respective groups are shown in FIG. 11, and the measured results of the average myotube cell diameter are shown in Table 1 and FIG. 12.

mitochondria = conditions: Patent Literature 3; cited from earlier work

Row | SMILES | Myogenin mRNA expression level (Myogenin [2]; FIG. 5) | myotube cell diameter (photographs) (C2C12 cells [4]) | myotube cell diameter (ImageJ, average of 50 cells) (C2C12 cells [4]) | PGC-1α mRNA expression level (PGC-1α [6]) | Myogenin mRNA expression level (Myogenin [2]; FIG. 4) | Myh7 mRNA expression level (Myh7 [3]; FIG. 7) | mitochondrial DNA copy number (COX2 relative to PPIA) (C2C12 cells [10]) | also measured
1 | CCc1oc(=O)c(Cc2c(O)c(C)c(CC)oc2=O)c(O)c1C [Helipyrone A] |  |  |  |  |  |  |  | PGC-1α production (PGC-1α [1]): promotes PGC-1α production in neurons
2 | Nc1ccn([C@@H]2O[C@H](CO)[C@@H](O)[C@H]2O)c(=O)n1 [cytidine] | excellent myotube cell differentiation promoting effect | significantly increased | concentration-dependently and remarkably increased |  |  |  |  | Myh7 mRNA expression level (Myh7 [3]; FIG. 8): markedly enhanced
3 | Nc1ccn([C@@H]2O[C@H](COP(=O)(O)O)[C@@H](O)[C@H]2O)c(=O)n1 [cytidylic acid] | remarkably enhanced | significantly increased | concentration-dependently and remarkably increased | concentration-dependently and remarkably enhanced | remarkably enhanced | remarkably enhanced | concentration-dependently and remarkably enhanced | PGC-1α mRNA expression level (PGC-1α [5]): concentration-dependently and remarkably enhanced; Myogenin mRNA expression level (Myogenin [7]): concentration-dependently and remarkably enhanced; Myh7 mRNA expression level (Myh7 [8]): markedly enhanced; mitochondrial DNA copy number (COX2 relative to PPIA) (C2C12 cells [9]): concentration-dependently and remarkably enhanced; Average myotube cell diameter (C2C12 cells [11]; 1 mM CMP): 61.1 μm; Average myotube cell diameter (C2C12 cells [11]; 5 mM CMP): 62.5 μm; myotube cell diameter (C2C12 cells [11]; vs control, FIGS. 11 and 12): concentration-dependently and remarkably increased
4 | O=C(O)c1cc(C(=O)O)c2c(n1)C(=O)C(=O)c1cc(C(=O)O)[nH]c1-2 [pyrroloquinoline quinone] |  |  |  |  |  |  |  | mitochondria activating effects (mitochondria): exhibits mitochondria activating effects
5 | O=c1ccn([C@@H]2O[C@H](CO)[C@@H](O)[C@H]2O)c(=O)[nH]1 [uridine] |  | significantly increased | concentration-dependently and remarkably increased |  |  |  |  | 
6 | O=c1ccn([C@@H]2O[C@H](COP(=O)(O)O)[C@@H](O)[C@H]2O)c(=O)[nH]1 [uridylic acid] |  | significantly increased | significantly increased | concentration-dependently and remarkably enhanced | remarkably enhanced | remarkably enhanced | concentration-dependently and remarkably enhanced | 
